Ten compounds from BindingDB's records for PubMed 39291025 (PI Health Sciences) can be followed below.

The structures appear in SMILES notation.

A word on the IC50: it is the concentration that gives 50% inhibition. High values mean weaker potency in that assay, low ones greater potency in that assay.

The nature of the experiment: Inhibition of cGAS in human THP-1 cells […] incubated for 18 hrs by Lucia luciferase reporter based counter assay.
Consider `C[C@@H]1CN2CC[C@H]1n1c(nc3cc(Cl)ccc31)O[C@H]1C[C@@H](C(=O)O)N(C1)c1nc(nc3c1oc1ccccc13)CCOCCCC2=O`, for which the IC50 was over 10 µM.
For `CC(=O)[C@@H]1C[C@H]2CN1c1nc(nc3c1oc1ccccc13)CCOCCCC(=O)N1CC[C@@H]([C@@H](C)C1)n1c(nc3cc(Cl)ccc31)O2` the value was over 10 µM.
For `C[C@H]1CN2CC[C@@H]1n1c(nc3cc(Cl)ccc31)O[C@H]1C[C@@H](C(=O)O)N(C1)c1nc(nc3c1oc1cc(Cl)ccc13)CCOCCCC2=O` the value was 9.5 µM.
In turn, `C[C@H]1CN2CC[C@@H]1n1c(nc3ccccc31)O[C@H]1C[C@@H](C(=O)O)N(C1)c1nc(nc3c1oc1ccccc13)C(F)(F)CCCCC(F)(F)C2=O` returned an IC50 of 6.6 µM.
As for `C[C@H]1CN2CC[C@@H]1n1c(nc3ccccc31)O[C@H]1C[C@@H](C(=O)O)N(C1)c1nc(nc3c1oc1cc(Cl)ccc13)C(F)(F)CCCOCC2=O`, the figure is over 10 µM.
For `Cc1cccc2c1nc1n2[C@@H]2CCN(C[C@H]2C)C(=O)CCCCCC(F)(F)c2nc(c3oc4ccccc4c3n2)N2C[C@H](C[C@H]2C(=O)O)O1` the value was 6 µM; for `C[C@H]1CN2CC[C@H]1n1c(nc3ccccc31)O[C@H]1C[C@@H](C(=O)O)N(C1)c1nc(nc3c1oc1ccccc13)C(F)(F)COCCCCC2=O`, 14 µM.
For `C[C@H]1CN2CC[C@@H]1n1c(nc3cc(Cl)ccc31)O[C@H]1C[C@@H](C(=O)O)N(C1)c1nc(nc3c1oc1ccccc13)C(F)(F)OCCCCC2=O` the value was over 10 µM; for `C[C@@H]1CN2CC[C@H]1n1c(nc3ccccc31)O[C@H]1C[C@@H](C(=O)O)N(C1)c1nc(nc3c1oc1ccccc13)CCCCCOC2=O`, 8.2 µM; for `C[C@H]1CN2CC[C@@H]1n1c(nc3ccccc31)O[C@H]1C[C@@H](C(=O)O)N(C1)c1nc(nc3c1oc1ccccc13)CCCCCN(C)C2=O`, 7.3 µM.
